Assay results from patent US6737383B1, “Herbicidal oxadiazolidines” (priority 1999, dated 2004).

Assays:
bedstraw = test: Test B pre/postemergence bedstraw; assay type: in vivo, Galium aparine
How it was run: (§1)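 Herbicidal effect was estimated by eye on a ten-point control scale after plants spent twelve to sixteen days in a greenhouse following soil or foliar treatment. Foliar sprays targeted plants at one to four leaves; all doses were formulated in a non-phytotoxic solvent with surfactant.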

blackgrass = test: Test B pre/postemergence blackgrass; assay type: in vivo, Alopecurus myosuroides
How it was run: as §1

surinam grass = test: Test B pre/postemergence surinam grass; assay type: in vivo, Brachiaria decumbens
How it was run: as §1

cocklebur = test: Test B pre/postemergence cocklebur; assay type: in vivo, Xanthium strumarium
How it was run: as §1

giant foxtail = test: Test B pre/postemergence giant foxtail; assay type: in vivo, Setaria faberii
How it was run: as §1

morningglory = test: Test B pre/postemergence morningglory; assay type: in vivo, Ipomoea hederacea
How it was run: as §1

pigweed = test: Test B pre/postemergence pigweed; assay type: in vivo, Amaranthus retroflexus
How it was run: as §1

rape = test: Test B pre/postemergence rape; assay type: in vivo, Brassica napus
How it was run: as §1

soybean = test: Test B pre/postemergence soybean; assay type: in vivo, Glycine max
How it was run: as §1

velvetleaf = test: Test B pre/postemergence velvetleaf; assay type: in vivo, Abutilon theophrasti
How it was run: as §1

wheat = test: Test B pre/postemergence wheat; assay type: in vivo, Triticum aestivum
How it was run: as §1

wild oat = test: Test B pre/postemergence wild oat; assay type: in vivo, Avena fatua
How it was run: as §1

purple nutsedge = test: Test B pre/postemergence purple nutsedge; assay type: in vivo, Cyperus rotundus
How it was run: as §1

smallflower flatsedge = test: Test B flood test smallflower flatsedge; assay type: in vivo, Cyperus difformis
How it was run: (§2)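 Read-out is a visual response score from 0 (no effect) to 10 (complete control), assigned by comparison with untreated controls. Treatment was applied at the 2-leaf stage, and plants stayed in the greenhouse for twelve to sixteen days before scoring.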

duck salad = test: Test B flood test duck salad; assay type: in vivo, Heteranthera limosa
How it was run: as §2

bamyardgrass = test: Test B flood test barnyardgrass; assay type: in vivo, Echinochloa crus-galli
How it was run: as §2

[1] = Postemergence, Rate 62 g/ha, scale 0 to 10, 0 is no effect, 10 is complete control
[2] = Preemergence, Rate 62 g/ha, scale 0 to 10 (0 no effect, 10 complete control)
[3] = Preemergence, Rate 125 g/ha, scale of 0 to 10 where 0 is no effect and 10 is complete control
[4] = Preemergence, Rate 250 g/ha, scale 0 to 10 (0 no effect, 10 complete control)
[5] = Preemergence, Rate 500 g/ha, scale of 0 to 10 where 0 is no effect and 10 is complete control
[6] = Postemergence, Rate 125 g/ha, scale of 0 to 10 where 0 is no effect and 10 is complete control
[7] = Postemergence, Rate 250 g/ha, scale of 0 to 10, 0 is no effect, 10 is complete control
[8] = Postemergence, Rate 500 g/ha, scale of 0 to 10 where 0 is no effect and 10 is complete control
[9] = Rate 62 g/ha, flood test species, Pre-emergence, visual evaluation after twelve to sixteen days
[10] = Rate 125 g/ha, under heading Pre-emergence, flood test species, visual evaluation after twelve to sixteen days
[11] = Rate 250 g/ha, Pre-emergence (flood test species), scale 0 to 10, 0 is no effect, 10 is complete control
[12] = Rate 500 g/ha, Pre-emergence section of Table B, 0 to 10 scale (0 no effect, 10 complete control)

CCOC(Cn1c(=O)on(C(=O)N(c2ccc(F)cc2F)C(C)C)c1=O)OCC [Compound 630]
Plant response rating, Bedstraw (bedstraw; [1]): 0
Bedstraw plant response rating (bedstraw; [2]): 0
Bedstraw plant response rating (bedstraw; [3]): 0
Plant response rating, Bedstraw (bedstraw; [4]): 0
Plant response rating, Bedstraw (bedstraw; [5]): 7
Plant response rating, Blackgrass (blackgrass; [1]): 0
Plant response rating, Blackgrass (blackgrass; [6]): 0
Blackgrass plant response rating (blackgrass; [7]): 3
Plant response rating, Blackgrass (blackgrass; [8]): 9
Blackgrass plant response rating (blackgrass; [2]): 5
Blackgrass plant response rating (blackgrass; [3]): 8
Plant response rating, Blackgrass (blackgrass; [4]): 8
Plant response rating, Blackgrass (blackgrass; [5]): 10
Plant response rating, B. signalgrass (surinam grass; [1]): 0
Plant response rating, B. signalgrass (surinam grass; [6]): 0
B. signalgrass plant response rating (surinam grass; [7]): 1
Plant response rating, B. signalgrass (surinam grass; [8]): 3
B. signalgrass plant response rating (surinam grass; [2]): 0
B. signalgrass plant response rating (surinam grass; [3]): 3
Plant response rating, B. signalgrass (surinam grass; [4]): 7
Plant response rating, B. signalgrass (surinam grass; [5]): 8
Plant response rating, Cocklebur (cocklebur; [1]): 0
Plant response rating, Cocklebur (cocklebur; [6]): 0
Cocklebur plant response rating (cocklebur; [7]): 0
Plant response rating, Cocklebur (cocklebur; [8]): 0
Cocklebur plant response rating (cocklebur; [2]): 0
Cocklebur plant response rating (cocklebur; [3]): 0
Plant response rating, Cocklebur (cocklebur; [5]): 0
Plant response rating, Giant foxtail (giant foxtail; [1]): 2
Plant response rating, Giant foxtail (giant foxtail; [6]): 7
Giant foxtail plant response rating (giant foxtail; [7]): 8
Plant response rating, Giant foxtail (giant foxtail; [8]): 9
Giant foxtail plant response rating (giant foxtail; [2]): 9
Giant foxtail plant response rating (giant foxtail; [3]): 10
Plant response rating, Giant foxtail (giant foxtail; [4]): 10
Plant response rating, Giant foxtail (giant foxtail; [5]): 10
Plant response rating, Morningglory (morningglory; [1]): 1
Plant response rating, Morningglory (morningglory; [6]): 2
Morningglory plant response rating (morningglory; [7]): 2
Plant response rating, Morningglory (morningglory; [8]): 4
Morningglory plant response rating (morningglory; [2]): 0
Morningglory plant response rating (morningglory; [3]): 0
Plant response rating, Morningglory (morningglory; [4]): 0
Plant response rating, Morningglory (morningglory; [5]): 2
Plant response rating, Redroot pigweed (pigweed; [1]): 0
Plant response rating, Redroot pigweed (pigweed; [6]): 0
Redroot pigweed plant response rating (pigweed; [7]): 1
Redroot pigweed plant response rating (pigweed; [2]): 2
Redroot pigweed plant response rating (pigweed; [3]): 9
Plant response rating, Redroot pigweed (pigweed; [4]): 10
Plant response rating, Redroot pigweed (pigweed; [5]): 10
Plant response rating, Rape (rape; [1]): 0
Plant response rating, Rape (rape; [6]): 0
Rape plant response rating (rape; [7]): 0
Plant response rating, Rape (rape; [8]): 4
Rape plant response rating (rape; [2]): 0
Rape plant response rating (rape; [3]): 0
Plant response rating, Rape (rape; [4]): 0
Plant response rating, Rape (rape; [5]): 0
Plant response rating, Soybean (soybean; [1]): 4
Soybean plant response rating (soybean; [7]): 5
Soybean plant response rating (soybean; [2]): 0
Soybean plant response rating (soybean; [3]): 0
Plant response rating, Soybean (soybean; [4]): 0
Plant response rating, Soybean (soybean; [5]): 3
Plant response rating, Velvetleaf (velvetleaf; [1]): 0
Plant response rating, Velvetleaf (velvetleaf; [6]): 4
Velvetleaf plant response rating (velvetleaf; [7]): 4
Velvetleaf plant response rating (velvetleaf; [2]): 0
Velvetleaf plant response rating (velvetleaf; [3]): 1
Plant response rating, Velvetleaf (velvetleaf; [4]): 6
Plant response rating, Velvetleaf (velvetleaf; [5]): 7
Plant response rating, Wheat (wheat; [1]): 0
Plant response rating, Wheat (wheat; [6]): 0
Wheat plant response rating (wheat; [7]): 0
Wheat plant response rating (wheat; [2]): 0
Wheat plant response rating (wheat; [3]): 0
Plant response rating, Wheat (wheat; [4]): 3
Plant response rating, Wheat (wheat; [5]): 8
Plant response rating, Wild oats (wild oat; [1]): 0
Plant response rating, Wild oats (wild oat; [6]): 0
Wild oats plant response rating (wild oat; [7]): 0
Wild oats plant response rating (wild oat; [2]): 0
Wild oats plant response rating (wild oat; [3]): 3
Plant response rating, Wild oats (wild oat; [4]): 8
Plant response rating, Wild oats (wild oat; [5]): 8
Plant response rating, Nutsedge (purple nutsedge; [1]): 0
Plant response rating, Nutsedge (purple nutsedge; [6]): 0
Plant response rating, Nutsedge (purple nutsedge; [8]): 0
Nutsedge plant response rating (purple nutsedge; [2]): 0
Nutsedge plant response rating (purple nutsedge; [3]): 0
Plant response rating, Nutsedge (purple nutsedge; [4]): 0
Plant response rating, Nutsedge (purple nutsedge; [5]): 3
Plant response rating, S. Flatsedge (0 to 10 scale, 0 is no effect, 10 is complete control) (smallflower flatsedge; [9]): 0
S. Flatsedge plant response rating (0 to 10 scale, 0 is no effect, 10 is complete control) (smallflower flatsedge; [10]): 0
S. Flatsedge plant response rating (smallflower flatsedge; [11]): 0
S. Flatsedge plant response rating (smallflower flatsedge; [12]): 0
Plant response rating, Ducksalad (0 to 10 scale, 0 is no effect, 10 is complete control) (duck salad; [9]): 0
Ducksalad plant response rating (0 to 10 scale, 0 is no effect, 10 is complete control) (duck salad; [10]): 0
Ducksalad plant response rating (duck salad; [11]): 0
Ducksalad plant response rating (duck salad; [12]): 0
Plant response rating, Barnyardgrass (0 to 10 scale, 0 is no effect, 10 is complete control) (bamyardgrass; [9]): 0
Barnyardgrass plant response rating (0 to 10 scale, 0 is no effect, 10 is complete control) (bamyardgrass; [10]): 0
Barnyardgrass plant response rating (bamyardgrass; [11]): 0
Barnyardgrass plant response rating (bamyardgrass; [12]): 0
